In patent US20060281897A1, “Potentialization of the activation of high molecular weight prodrugs” (priority 2003, published 2006):
Square brackets hold non-standard residues; d marks the D form.

Key:
[1] = 37° C.
Experimental: The samples were incubated at 37° C. An extraction (for extraction method with acetonitrile, see Item 7.3 below) of each product was carried out in triplicate at time 0 and after 1, 2, 4 and 6 hours of incubation.
10 μl of internal standard (prolyl-daunorubicin) and […] 150 μl of acetonitrile were added into tubes containing 50 μl of the sample to be extracted. The tubes were stirred and centrifuged for 10 minutes to 13000 g. The supernatant was diluted 4 times in a formate buffer, pH 4, centrifuged, then analyzed by HPLC (see Item 7.3 below).
At different time points, the concentrations of the conjugates and possible metabolites formed were evaluated by HPLC. FIG. 7 illustrates the variations of the concentration of products based on the incubation time.

[2] = system: HCT-116 human colon carcinoma xenograft; experiment: Chemotherapy study in HCT-116 human colon carcinoma xenograft model; assay type: in vivo, mice
Text: The anti-tumor efficacy of PEG2000-(DSer)4-ALAL-Dox was compared to that of succinyl-βALAL-Dox in an HCT-116 human colon carcinoma xenograft model that was implanted subcutaneously in Swiss nude/nude mice. The animals received 5 i.v. bolus injections (for 5 consecutive days) of succinyl-βALAL-Dox at 30 μmol/kg or PEG2000-(DSer)4-ALAL-Dox at 53 and 110 μmol/kg (6 mice/group). […] The results of FIG. 8 show the variations of the body weight of the animals. […] The anti-tumor efficacy is shown by the T/C curve that comprises two phases (FIG. 9). […] In the second phase, the activity of the PEGylated derivative (110 μmol/kg) decreased relative to that of succinyl-PALAL-Dox. […] The MTD of the PEGylated derivative was not reached in this study.
The anti-tumor efficacy of PEG2000-(DSer)4-ALAL-Dox was compared to that of PEG2000-ALAL-Dox in an HCT-116 human colon carcinoma xenograft model implanted subcutaneously in Swiss nude/nude mice. The animals received 5 i.v. bolus injections (for 5 consecutive days) of the compounds at doses of 200, 300, and 400 μmol/kg (5 mice/group). Contrary to PEG2000-ALAL-Dox, PEG2000-(DSer)4-ALAL-Dox was toxic at 300 and 400 μmol/kg and induced a weight loss and the death of the animals (FIG. 10).

[3] = system: LS-174T human colon cancer xenografts; experiment: In vivo tumor reactivation of PEGylated prodrug derivatives (Dox and Leu-Dox accumulated in tumor); settings: i.v. bolus 69 μmol/kg, LS-174T tumor
[4] = system: LS-174T human tumor xenografts; experiment: Efficacy study in LS-174T human colon carcinoma xenograft model; settings: for T/C min / specific growth delay (SGD): LS-174T, Suc-beta-ALAL-Dox 50 μmol/kg, PEG2000-(DSer)4-ALAL-Dox 1×50+3×35 μmol/kg, i.v. days 0, 7, 14, 21; for body weight loss: as of the second week of weekly i.v. treatment
Experimental: The experimental chemotherapy studies were carried out on athymic mice that carried LS-174T or HCT 116 (colon carcinomas) tumors of human origin previously grafted subcutaneously.
The mice were selected and distributed into the different groups of the study so as to have equal distributions of tumor volumes. The different treatments were randomly assigned to the groups so formed.
Treatments were administered intravenously in the caudal vein. During these injections, the animals received a constant volume of 10 μl/g of product (Workman et al., 1998). After the injection, the clinical signs were duly followed (each hour during the first day, and daily until the end of the study), as well as the weight that was measured at the same time as the tumor volume (mm^3). The growth of the tumor was monitored 2× per week by measuring, with the aid of a caliper, two perpendicular diameters (or “diagonals”) of the tumor (the largest and the smallest “diagonal”).
To determine the variations of the tumor volume of the different groups, the median of the relative tumor volumes (RTV for “relative tumor volume”) that express in percent the variations of the medians of the tumor volumes relative to day 0 was calculated. To estimate the effect of the various treatments, the inhibition of the growth was determined by calculating the ratio between the median of the RTV of the treated groups (T) and that of control group (C) that is expressed by percentage (T/C(%)).
The lowest value of the T/C ratio was used as a parameter to estimate the maximum efficacy of the products that were evaluated.
The Specific Growth Delay (SGD) was also calculated as (DTtreated−DTcontrol)/(DTcontrol).
For these reasons, growth delays (T-C) and specific growth delays (SGD) were calculated from linear regressions of different phases that characterize the growth of the tumors.
The products were injected intravenously (10 μl/g, 6 mice per group).
The administered doses were reduced starting from day 7.

MCF-7/6 cells = experiment: Cytotoxicity test (WST-1 cell viability); assay type: cell-based, human; settings: read-out: IC50 (50% inhibiting concentration), 48 hours incubation + 24 hours drug-free post-incubation
Experimental: The cytotoxicity tests of doxorubicin and derivatives were carried out with MCF-7/6 cells and LNCaP cells.
The cells were collected by trypsinization, counted, and then inoculated in 96-well plates in 200 μl of serum-containing medium.
The cells were incubated for 24 hours at 37° C. before the addition of the products to be tested:
diluted to various concentrations in the serum-containing culture medium. After an incubation of 48 hours in the presence of various compounds, the cells were finally post-incubated at 37° C. for 24 hours in the presence of drug-free serum-containing medium. After this incubation period, a cell viability test was carried out (WST-1, Roche Molecular Biochemical, Mannheim, Germany).
They were then post-incubated for 24 hours in drug-free serum containing medium. The cytotoxicity of the products was estimated by a cell viability test (WST-1, Roche Molecular Diagnostic, Mannheim, Germany).

[5] = 1×50+3×35 μmol/kg vs doxorubicin 6.69 μmol/kg

COc1cccc2c1C(=O)c1c(O)c3c(c(O)c1C2=O)CC(O)(C(=O)CO)CC3OC1CC(NC(=O)C(CC(C)C)NC(=O)C(C)NC(=O)C(CC(C)C)NC(=O)C(C)N)C(O)C(C)O1 (stereo not drawn) [ALAL-Dox, Ala-Leu-Ala-Leu-doxorubicin, reference compound]
stability in blood ([1]; 20 μM in citrated human blood): not stable in blood | starting product degraded in Leu-Dox and Dox ([1]; after 1 hour, whole human blood): 80%

COc1cccc2c1C(=O)c1c(O)c3c(c(O)c1C2=O)CC(O)(C(=O)CO)CC3OC1CC(NC(=O)C(CC(C)C)NC(=O)C(C)NC(=O)C(CC(C)C)NC(=O)CCNC(=O)CCC(=O)O)C(O)C(C)O1 (stereo not drawn) [Suc-beta-ALAL-Dox, succinyl-beta-Ala-Leu-Ala-Leu-doxorubicin, reference compound]
body weight loss ([2]; 30 μmol/kg ×5 i.v., end of the study, day 49): about 20% | DOX concentration in tumor ([3]; 2 hours after injection): 1.93 nmol/mg | Leu-DOX concentration in tumor ([3]; 2 hours after injection): 4.64 nmol/mg | DOX concentration in tumor ([3]; 72 hours after injection): 5.41 nmol/mg | Leu-DOX concentration in tumor ([3]; 72 hours after injection): 0.05 nmol/mg | T/C min [4]: 26.6% | specific growth delay (SGD) [4]: 3.02 | body weight loss [4]: slight weight loss | maximum weight loss ([4]; day 32, 45 and 50 μmol/kg groups): 10%

COc1cccc2c1C(=O)c1c(O)c3c(c(O)c1C2=O)C[C@@](O)(C(=O)CO)C[C@@H]3O[C@H]1C[C@H](N)[C@H](O)[C@H](C)O1 [doxorubicin, reference compound]
body weight loss [4]: no significant weight loss

PEG2000-(DSer)4-Ala-Leu-Ala-Leu-doxorubicin (PEG2000-[dS][dS][dS][dS]ALAL-doxorubicin) [PEG2000-(DSer)4-ALAL-Dox]
anti-tumor effect ([2]; 53 μmol/kg ×5 i.v.): induced a tumor regression for the week of treatment | toxicity ([2]; 53 and 110 μmol/kg, 5 i.v. bolus injections): no toxicity | toxicity (weight loss and death of the animals) ([2]; 300 and 400 μmol/kg, 5 i.v. bolus injections on 5 consecutive days): toxic | anti-tumor efficacy ([2]; equimolar non-toxic dose 200 μmol/kg ×5 i.v.): better anti-tumor efficacy than that of PEG2000-ALAL-Dox | maximum tolerated dose (MTD) ([2]; up to 110 μmol/kg ×5 i.v.): not reached | activity during the first growth phase [4, 5]: comparable to that of doxorubicin | activity during the second growth phase [4, 5]: more active than doxorubicin and as active as Suc-beta-ALAL-Dox | T/C min [4]: 38% | specific growth delay (SGD) [4]: 1,58 | body weight loss [4]: no significant weight loss | deaths ([4]; initial i.v. bolus at 50 μmol/kg and 45 μmol/kg, 6 mice per group): One death | hydrolysis: Dox formed ([1]; at 6 hours, whole human blood): 5% | hydrolysis: L-Dox (Leu-Dox) formed ([1]; at 6 hours, whole human blood): 5%

PEG2000-(DSer)4-beta-Ala-Leu-Ala-Leu-doxorubicin [PEG2000-(DSer)4-beta-ALAL-Dox]
IC50 (MCF-7/6 cells): 251 µM

PEG2000-beta-Ala-Leu-Ala-Leu-doxorubicin [PEG2000-beta-ALAL-Dox]
IC50 (MCF-7/6 cells): > 500 µM
